Active and inactive are the calls of the source. No rule for the calls is given here.
molecular target: Serine/threonine-protein kinase PLK1 (Homo sapiens) (UniProt P53350); test: potency against Plk1 PBD phosphopeptide binding – biochemical, fluorescence polarization, dose response (AID 877)
Sequence (P53350 whole entry, looked up): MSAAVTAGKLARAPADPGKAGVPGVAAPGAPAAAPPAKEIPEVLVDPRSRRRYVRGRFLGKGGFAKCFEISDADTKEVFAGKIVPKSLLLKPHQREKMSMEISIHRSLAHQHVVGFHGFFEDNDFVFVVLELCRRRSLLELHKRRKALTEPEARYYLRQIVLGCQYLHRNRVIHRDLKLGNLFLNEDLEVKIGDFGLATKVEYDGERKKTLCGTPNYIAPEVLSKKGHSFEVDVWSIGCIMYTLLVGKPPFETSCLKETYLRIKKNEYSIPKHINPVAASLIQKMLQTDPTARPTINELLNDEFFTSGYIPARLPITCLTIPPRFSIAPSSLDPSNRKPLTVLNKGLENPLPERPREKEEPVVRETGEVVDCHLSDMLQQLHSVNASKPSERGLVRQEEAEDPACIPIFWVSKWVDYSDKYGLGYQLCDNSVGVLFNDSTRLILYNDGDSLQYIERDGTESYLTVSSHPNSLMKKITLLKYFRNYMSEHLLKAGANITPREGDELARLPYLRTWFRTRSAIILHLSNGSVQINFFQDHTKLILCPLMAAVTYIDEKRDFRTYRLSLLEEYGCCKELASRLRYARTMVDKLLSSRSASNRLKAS

Row | IC50 | Structure (SMILES)
1 | > 50 µM (inactive) | O=C1C(C2=C(O)c3ccccc3C2=O)=Nc2ccccc21
2 | > 50 µM (inactive) | CCC(Sc1nc2n[nH]c(C)c2c(=N)n1-c1cccc(Cl)c1)C(=O)NCCOC (stereo not drawn)
3 | > 50 µM (inactive) | O=C(O)COc1ccc(Br)cc1/C=N/O

Source: PubChem BioAssay AID877 (University of Pittsburgh Molecular Library Screening Center, 2007)
